Blank lines part the entries; values can stand above or below the substance they belong to.
Key:
[1] = activity of the polysaccharide as cited from the reference in Table 15; cited from earlier work
[2] = test system: anti-Sialyl Lewis X IgM from mouse; experiment: Anti-Sialyl Lewis X antibody binding assay; details: Library 1 strip after the ERs sequence, anti-mouse IgM-biotin, avidin-peroxidase, O.D. 450 nm, versus control strip without nucleotide sugar
Protocol: Anti-Sialyl Lewis X: 100 μl of 10 μg/ml anti-Sialyl Lewis X IgM from mouse (Calbiochem 565953) was added to the plates and incubated for 1 hour at 25° C. in TBS containing 1% BSA. The wells were washed 3 times with 200 μl TBST with a last wash consisting of a 15 minutes soak, following which, a solution of TBS containing 1% BSA and 100 μl of 5 μg/ml goat anti-mouse IgM conjugated to biotin (SIGMA b-9265) was added to the plates and incubated for one hour at 25° C. The wells were washed 3 times with […] with a last wash consisting of a 15 minutes soak, followed by incubation with […] containing 1% BSA and 5 μg/ml avidin conjugated to peroxidase (SIGMA A-3151, 40 peroxidase units per mg protein) for 1 hour at 25° C. The wells were washed three times with 200 μl TBST with a last wash consisting of a 15 minutes soak. 100 μl of fresh peroxidase substrate solution was added, and an hour later the O.D. of the solution (at 450 nm) was determined.
When the above described binding assays were performed on covalently coupled monosaccharide acceptors, such as the case with Covalink NH plates, the TBS incubation solution was replaced with TBST and the wash steps were performed using high ionic strength buffer instead of TBST.

TGP lectin = TGP lectin binding assay; parameters: species or system Tereagonolobus purpureas; details: Library 1 strip after the ERs sequence; peroxidase-conjugated lectin, O.D. 450 nm; versus control strip without nucleotide sugar
Protocol: TGP: 100 μl of 20 μg/ml TGP lectin conjugated to peroxidase (SIGMA L-1508, 10 peroxidase units per mg protein) was added to the plates and incubated for one hour at 25° C. in TBS containing 1% BSA and 10 millimolar of MnCl2 and of CaCl2. The wells were washed three times with 200 μl TBST with a last wash consisting of a 15 minutes soak. 100 μl of fresh peroxidase substrate solution was added, and an hour later the O.D. of the solution (at 450 nm) was determined. When the above described binding assays were performed on covalently coupled monosaccharide acceptors, such as the case with Covalink NH plates, the TBS incubation solution was replaced with TBST and the wash steps were performed using high ionic strength buffer instead of TBST.

Substance: Fucoidan
Activity [1]: anti coagulant

IgM Anti-Sialyl Lewis X binding [2]: increase
Substance: NeuAC α 2,3 Gal β 1,4 (Fuc α 1,3)GlcNAc [EM 6]

TGP binding (TGP lectin): increase
Substance: Gal β 1,4 (Fuc α 1,3)GlcNAc-S [EM 5]
